Experimental data published in PubChem BioAssay (NCI).
Where “and” joins values, the source holds several entries; their conditions need not be identical. Identical values can stand only once.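 Exposure lasted 48 hours, with cells grown in 96-well plates and compounds tested at five concentrations. GI50: concentration for 50% inhibition of growth. TGI: concentration producing complete growth inhibition.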 *1 amine or outer side, *2 acyl side, *3 side chain or, on linkers, in order; H or OH if unused. Where a SMILES comes first, the peptide text is derived from it. Bridges are numbered along the chain shown (N, C = ends). [ ]: non-standard residue; d: D form. ξ: configuration not given here. X4 = CCC(C)C(N[*:1])C(O)CC(=O)O[C@H](C(=O)C(C)C(=O)[*:2])C(C)C; NMeY = CN[C@@H](Cc1ccc(O)cc1)C(=O)O; ξNMeL = CNC(CC(C)C)C(=O)O; ξT = CC(O)C(N)C(=O)O

Tests used:
Assay in all cases: inhibition of tumour cell growth, NCI panel, 48 h
IGROV1 ovarian = system: IGROV1 ovarian
NCI-H23 lung = system: NCI-H23 lung
RXF 393 renal = system: RXF 393 renal
OVCAR-4 ovarian = system: OVCAR-4 ovarian
SK-MEL-28 melanoma = system: SK-MEL-28 melanoma
SNB-19 CNS = system: SNB-19 CNS
COLO 205 colon = system: COLO 205 colon
HT29 colon = system: HT29 colon
MALME-3M melanoma = system: MALME-3M melanoma
NCI-H226 lung = system: NCI-H226 lung

Structure (SMILES) | TGI (IGROV1 ovarian) | TGI (NCI-H23 lung) | TGI (RXF 393 renal) | TGI (OVCAR-4 ovarian) | TGI (SK-MEL-28 melanoma) | TGI (SNB-19 CNS) | TGI (COLO 205 colon) | TGI (HT29 colon) | TGI (MALME-3M melanoma) | TGI (NCI-H226 lung) | GI50 (IGROV1 ovarian) | GI50 (NCI-H23 lung) | GI50 (RXF 393 renal) | GI50 (OVCAR-4 ovarian) | GI50 (SK-MEL-28 melanoma) | GI50 (SNB-19 CNS) | GI50 (COLO 205 colon) | GI50 (HT29 colon) | GI50 (MALME-3M melanoma) | GI50 (NCI-H226 lung)
N#CC(C#N)=C(N)/C(C#N)=C\c1ccnc2ccccc12 | 49.5 µM | 40.5 µM | 35.3 µM | > 100 µM | 40.2 µM | > 100 µM | > 100 µM | 57.7 µM | 87 µM |  |  |  |  |  |  |  |  |  |  | 
CC(=O)N/C(=C\c1ccc(/C=C(\NC(C)=O)c2nc3ccc(Cl)cc3[nH]2)cc1)c1nc2ccccc2[nH]1 | > 100 µM | > 100 µM |  |  | > 100 µM | > 100 µM | > 100 µM | > 100 µM | > 100 µM | > 100 µM |  |  |  |  |  |  |  |  |  | 
NC(CCCCNC(=O)OCc1ccccc1)C(=O)NC(CCCCNC(=O)OCc1ccccc1)C(=O)ON1C(=O)CCC1=O (stereo not drawn) | > 100 µM | > 100 µM | > 100 µM |  | > 100 µM | > 100 µM | > 100 µM | > 100 µM | > 100 µM | > 100 µM |  |  |  |  |  |  |  |  |  | 
CN(C)c1ccc(/C=C2\Oc3cc(O)ccc3C2=O)cc1 | > 100 µM | > 100 µM | > 100 µM | > 100 µM | > 100 µM | > 100 µM | > 100 µM |  |  | > 100 µM |  |  |  |  |  |  |  |  |  | 
COC(=O)CCC/C=C\C[C@H]1C=CC(=O)/C1=C/C[C@@H](O)CCc1cccc(C(F)(F)F)c1 | 13.9 µM | 5.18 µM | 3.79 µM | 14.1 µM | 5.2 µM | 16.6 µM | 5.85 µM | 6.06 µM | 8.1 µM |  | 3.71 µM | 2.03 µM | 2.08 µM | 3.47 µM | 1.98 µM | 4.04 µM | 2.39 µM | 2.64 µM | 2.47 µM | 
O=C(Nc1ccc(Cl)cc1)Nc1ccc(Cl)c(Cl)c1 | > 100 µM | > 100 µM |  | > 100 µM | > 100 µM | > 100 µM | 3.42 µM | > 100 µM |  |  | 4.78 µM | 3.34 µM |  | 3.88 µM | 6.07 µM | 4.01 µM | 1.85 µM | 3.76 µM |  | 
COC1=CC23C=CC1[C@@H](c1ccccc1)C2=C(C)C(=O)N3C(=O)NC1CCCCC1 (stereo partly drawn) | > 100 µM | 57.5 µM | 14.8 µM |  | 42.2 µM | > 100 µM |  | 41.1 µM |  | 46.6 µM |  |  |  |  |  |  |  |  |  | 
O=C(Nc1ccccc1)c1ccc(Cl)c([N+](=O)[O-])c1 | 54.3 µM | 63.6 µM | 75.5 µM |  | 61.4 µM | 97.4 µM | 70 µM | 70.1 µM | 42.4 µM | 68.4 µM |  |  |  |  |  |  |  |  |  | 
COc1cc(-c2nc3ccc(C)cc3[nH]2)ccc1OCC(=O)N=Nc1c(O)[nH]c2ccccc12 | 3.48 µM | 3.48 µM | 3.17 µM | 3.25 µM | 3.16 µM | 3.51 µM |  |  | 3.18 µM |  | 1.73 µM | 1.81 µM | 1.65 µM | 1.75 µM | 1.77 µM | 1.83 µM |  |  | 1.68 µM | 
CCN(CC)CCn1c2c3ccccc3ccc2c2oc(=O)c3ccccc3c21 | > 100 µM | > 100 µM |  | 96.5 µM | > 100 µM | > 100 µM | > 100 µM | > 100 µM | > 100 µM |  |  |  |  |  |  |  |  |  |  | 
COc1cc(OC2OC(C)C(O)C(O)C2O)cc2oc(-c3ccc(O)cc3)c(CC=C(C)C)c(=O)c12 (stereo not drawn) | 51.9 µM | 47.4 µM | 64.6 µM | 18.9 µM | 59.6 µM | 39.2 µM | 22.1 µM |  | 55.5 µM | 69.7 µM | 12.9 µM | 18.6 µM | 20.3 µM | 2.06 µM | 23.4 µM | 15.3 µM | 10 µM |  | 15.5 µM | 21.9 µM
c1cnc2c(c1)-n1cccc1C1(CCSCC1)NN2 |  |  |  | > 100 µM | > 100 µM | > 100 µM | > 100 µM | > 100 µM | > 100 µM | > 100 µM |  |  |  |  |  |  |  |  |  | 
COc1ccc2c(c1)sc1nc(-c3ccccc3)c(-c3ccsc3)n12 | > 100 µM | > 100 µM |  | > 100 µM | > 100 µM | > 100 µM | 6.38 µM | 10.5 µM | > 100 µM | 18.1 µM | 6.53 µM | 4 µM |  | 3.7 µM | 4.9 µM | 6.9 µM | 2.26 µM | 2.95 µM | > 100 µM | 2.17 µM
Cc1nc2ccc(C(F)(F)F)cc2nc1Nc1ccc(Cl)c(Cl)c1 |  | 26.4 µM | 19.1 µM |  | 24.7 µM | 27.1 µM | 11.9 µM | 18.6 µM | 35.7 µM | 39.1 µM |  |  |  |  |  |  |  |  |  | 
CCC(C)C1NC(=O)C(NC(=O)C(CC(C)C)N(C)C(=O)[C@@H]2CCCN2)C(C)OC(=O)[C@H](Cc2ccc(OC)cc2)N(C)C(=O)[C@@H]2CCCN2C(=O)[C@H](CC(C)C)NC(=O)C(C)C(=O)[C@H](C(C)C)OC(=O)CC1O (stereo partly drawn) (H-P[ξNMeL][ξT][X4]LP[NMeY](Me); ester 3-C) | 0.0107 µM | 0.00218 µM |  | 0.00369 µM and 0.0185 µM | 0.00179 µM | 0.0398 µM |  | 0.0151 µM and 0.0127 µM | 0.00847 µM |  |  |  |  |  |  |  |  |  |  | 
CC1CC(c2ccccc2)=Nc2ccccc2S1(=O)=O (stereo not drawn) | 37.8 µM | 30.8 µM | 28.7 µM | 38.3 µM | 29.8 µM | 28.4 µM | 40.9 µM |  | 37.1 µM |  |  |  |  |  |  |  |  |  |  | 
Nc1nc(-c2cccc([N+](=O)[O-])c2)c(Br)c(=O)[nH]1 | > 100 µM | > 100 µM | > 100 µM | > 100 µM | > 100 µM | > 73 µM | > 100 µM | > 100 µM |  | > 100 µM |  |  |  |  |  |  |  |  |  | 
CCN(CC)CCC1CC/C(=C\c2ccc(OC)cc2)C1=O (stereo not drawn) | > 100 µM |  | > 100 µM | > 100 µM | > 100 µM | > 100 µM | 38.9 µM | > 100 µM | > 100 µM | > 100 µM |  |  |  |  |  |  |  |  |  | 
Cc1cc2c(CC(=O)O)[nH]nc2c(C(=O)O)c1C |  | > 100 µM | > 100 µM |  | > 100 µM | > 100 µM | > 100 µM | > 100 µM | > 100 µM | > 100 µM |  |  |  |  |  |  |  |  |  | 
S=C(Nc1ccc(-c2nc3ccccc3[nH]2)cc1)NC1CCCCC1 |  | 68.3 µM | 74 µM |  |  |  | > 100 µM | > 100 µM | 51.9 µM | 48.9 µM | 35.2 µM | 23.2 µM | 15.5 µM |  | 30.6 µM | 46.6 µM |  | 34.4 µM |  | 19.6 µM
Cc1cc2nc3c(=O)n(C)c(=O)nc-3n(-c3ccc(Cl)cc3)c2cc1C | 38.8 µM | 26.2 µM |  | 19.8 µM | 33.4 µM | 47 µM | 9.76 µM | 16.1 µM | 22.3 µM | 37.6 µM |  |  |  |  |  |  |  |  |  | 
C=CCn1c(C)nc2cc(Nc3nc(Nc4ccc5nc(C)n(CC=C)c5c4)c4ccccc4n3)ccc21 |  | 4.57 µM | 1.37 µM | 0.583 µM | 3.16 µM |  |  | 0.348 µM |  | 4.77 µM |  | 1.88 µM | 0.354 µM | 0.24 µM | 1.41 µM |  |  | 0.19 µM |  | 2.02 µM
CN(C)CCNc1nc2ccccc2c2c1c1c(n2Cc2ccccc2)-c2ccccc2C1=O | 49.5 µM | 39.7 µM | 37.6 µM | 27 µM | 32.3 µM | 33.8 µM | 65.3 µM | 22.2 µM |  | 50.3 µM | 12.1 µM | 14.8 µM | 11.5 µM | 12.6 µM | 16.8 µM | 16.4 µM | 16.6 µM | 6.92 µM |  | 20.2 µM
Oc1ccc(N=Nc2ccc(Cl)cc2)cc1 | 29.3 µM | 32.3 µM | 30.3 µM | 61 µM | 54.1 µM | 34.3 µM | 33.4 µM | 32.2 µM |  | 35.6 µM |  |  |  |  |  |  |  |  |  | 
O=C(Oc1ccc(O)c2c(=O)n3c(cc12)[nH]c1ccccc13)c1ccccc1 | 24.6 µM | 37.7 µM | 0.505 µM | > 100 µM | 76.4 µM | > 100 µM | 45.3 µM | > 100 µM |  | 64.2 µM | 10.6 µM | 16 µM |  | 49 µM | 24.9 µM | 37.7 µM | 19.9 µM | 33.5 µM |  | 18.9 µM
CCOC(=O)CCC(=O)C1c2cccc(O)c2C(=O)c2c(O)cccc21 | 4.72 µM | 3.09 µM | 2.08 µM | 1.86 µM | 2.68 µM | 3.7 µM | 3.95 µM | 6.24 µM | 3.42 µM |  |  |  |  |  |  |  |  |  |  | 
Nc1ccc(C(=O)N/C(=C\C=C\c2ccco2)c2nc3[nH]c(=S)[nH]c(=O)c3[nH]2)cc1 | > 100 µM | > 100 µM | > 100 µM | > 100 µM | > 100 µM | > 100 µM | > 100 µM | > 100 µM | > 100 µM |  |  |  |  |  |  |  |  |  |  | 
Cc1cc2nc3c(C(OC4OC(CO)C(O)C(O)C4O)C(O)CO)nn(-c4ccccc4)c3nc2cc1C (stereo not drawn) |  | > 100 µM | > 100 µM | > 100 µM | > 100 µM | > 100 µM |  | > 100 µM | > 100 µM |  |  |  |  |  |  |  |  |  |  | 
NC(=O)c1c[se]c(C2OC(CO)C(O)C2O)n1 (stereo not drawn) | > 100 µM | > 100 µM |  | > 100 µM | > 100 µM | > 100 µM | > 100 µM | > 100 µM | > 100 µM | > 100 µM |  |  |  |  |  |  |  |  |  | 
